{"source": "patent US20110124606A1", "about": "“SENSE-IMPROVING AGENT” (SNOW BRAND MILK PRODUCTS CO., LTD., priority 2007, published 2011)", "key": {"PC-12 cells": {"system": "PC-12 cells", "test": "Cell differentiation-promoting activity: PC-12 cells cultured in culture supernatant of treated 3T3 cells", "assay_type": "cell-based", "details": "supernatant of 3T3 cells cultured two days with 200 μg/l", "experimental": "3T3 cells, which is fibroblast cell strain known to be present in skin, were cultured for two days under the condition that the milk-derived phospholipid-containing composition of Example 1 or 2 was added at a concentration of 200 μg/l (Example 1: Group A, Example 2: Group B). As a control, 3T3 cells were cultured for two days without adding the milk-derived phospholipid-containing composition obtained in Example 1 or 2 (Group C). PC-12 cells (nerve model cells) were cultured using the culture supernatant thereof, and morphological differentiation of the PC-12 cells was observed. […] It was confirmed that 95% or more of the cells were differentiated when using the culture supernatant of the group A or B. On the other hand, the PC-12 cells were not differentiated when using the culture supernatant of the group C. No differentiation was observed through an optical microscope even though the experiment was repeated several times. It was thus confirmed that the milk-derived phospholipid-containing compositions obtained in Examples 1 and 2 promote differentiation of the PC-12 cells which was nerve model cells.\n3T3 cells, which is fibroblast cell strain known to be present in skin, were cultured for two days under the condition that the sphingomyelin obtained in Example 3 was added at a concentration of 200 μg/l (group A). […]"}, "[1]": {"system": "Healthy elderly persons who suffered deterioration in sensation in the hands", "test": "Pain sensation in palm and foot by Algesiometer, oral intake of sphingomyelin (Test Example 5)", "assay_type": "in vivo, human", "details": "for Hand Foot bottom sensation measurement (before intake): Average value / Hand sensation measurement (before intake): Average value / Hand Foot bottom sensation measurement (after intake for 12 weeks): Average value / Hand sensation measurement (after intake for 12 weeks): Average value: Normal 0 to Deterioration III 3 points; for Hand Foot bottom sensation measurement (before intake): Deterioration I / Hand Foot bottom sensation measurement (before intake): Deterioration II / Hand Foot bottom sensation measurement (before intake): Deterioration III / Hand Foot bottom sensation measurement (before intake): Normal / Hand sensation measurement (before intake): Deterioration I / Hand sensation measurement (before intake): Deterioration II / Hand sensation measurement (before intake): Deterioration III / Hand sensation measurement (before intake): Normal / Hand Foot bottom sensation measurement (after intake for 12 weeks): Deterioration I / Hand Foot bottom sensation measurement (after intake for 12 weeks): Deterioration II / Hand Foot bottom sensation measurement (after intake for 12 weeks): Deterioration III / Hand Foot bottom sensation measurement (after intake for 12 weeks): Normal / Hand sensation measurement (after intake for 12 weeks): Deterioration I / Hand sensation measurement (after intake for 12 weeks): Deterioration II / Hand sensation measurement (after intake for 12 weeks): Deterioration III / Hand sensation measurement (after intake for 12 weeks): Normal: subjects per criterion, 15 per group; for sensation in the palm and the bottom of the foot (in words): 12 weeks", "experimental": "The pain sensation was evaluated using five pins that differ in thickness in combination with five fulcrum positions. The thinnest pin 1 was rolled along the medial side of the arm, and the subject was asked about the degree of normal pain sensation. The pin 1 was then rolled along the palm and the bottom of the foot while sequentially changing the holder fulcrum position to determine the fulcrum position at which the same pain sensation degree as the first pain sensation occurred. The Algesiometer is designed so that the pain sensations with same degree occur between when rolling the pin 1 (fulcrum: 50 g) along the medial side of the arm and when rolling the pin 2 (fulcrum: 50 g) along the palm. The pain sensation was evaluated as follows in accordance with the instruction manual. The pain sensation was evaluated by points, and the average points were calculated. Normal (0 points): The same pain sensation occurred when rolling the pin 2 (fulcrum: 50 g). Deterioration I (1 point): The same pain sensation occurred when rolling the pin 1 (fulcrum: 50 g). Deterioration II (2 points): The same pain sensation occurred when rolling the pin 1 (fulcrum: 60 g): Deterioration III (3 points): The same pain sensation occurred when rolling the pin 1 (fulcrum: 70 g): Healthy elderly persons (average age: 75±3) who suffered deterioration in sensation in the hands were divided into three groups (one group: 15 subjects). The subjects took the sphingomyelin obtained in Example 4 in an amount of 0 mg, 4 mg, or 8 mg for 12 weeks. The pain sensation in the palm and the arch of the foot was measured with 4 criteria (normal, deteriorations I, II, and III) before the intake and after the intake for 12 weeks with reference to the pain sensation in the medial side of the arm using a pain/touch-pressure sensation measuring device (“Algesiometer” manufactured by Intercross Ltd.) in accordance with the instruction manual. After the intake for 12 weeks, a questionnaire survey on improvement in sensation in the hands was carried out to each elderly person. The measurement method and the evaluation method are the same as those employed in Test Example 4."}, "[2]": {"system": "Healthy elderly persons who suffered deterioration in sensation in the hands", "test": "Questionnaire survey on improvement in sensation, oral intake of sphingomyelin (Test Example 5)", "assay_type": "in vivo, human", "details": "subjects of 15", "experimental": "Healthy elderly persons (average age: 75±3) who suffered deterioration in sensation in the hands were divided into three groups (one group: 15 subjects). The subjects took the sphingomyelin obtained in Example 4 in an amount of 0 mg, 4 mg, or 8 mg for 12 weeks. The pain sensation in the palm and the arch of the foot was measured with 4 criteria (normal, deteriorations I, II, and III) before the intake and after the intake for 12 weeks with reference to the pain sensation in the medial side of the arm using a pain/touch-pressure sensation measuring device (“Algesiometer” manufactured by Intercross Ltd.) in accordance with the instruction manual. After the intake for 12 weeks, a questionnaire survey on improvement in sensation in the hands was carried out to each elderly person. The measurement method and the evaluation method are the same as those employed in Test Example 4."}}}
{"substance": "sphingomyelin [Example 3]", "values": [{"measurement": "morphological differentiation of PC-12 cells", "setting": "PC-12 cells", "value": "highly differentiated"}, {"measurement": "differentiation rate of PC-12 cells", "setting": "PC-12 cells; optical microscope", "value": "≥ 94", "unit": "%"}]}
{"substance": "sphingomyelin [Example 4]", "values": [{"measurement": "Hand Foot bottom sensation measurement (before intake): Average value", "setting": "[1]; 4 mg group", "value": 2.1, "unit": "points"}, {"measurement": "Hand sensation measurement (before intake): Average value", "setting": "[1]; 4 mg group", "value": 2.1, "unit": "points"}, {"measurement": "Hand Foot bottom sensation measurement (before intake): Deterioration I", "setting": "[1]; 4 mg group", "value": 3}, {"measurement": "Hand Foot bottom sensation measurement (before intake): Deterioration II", "setting": "[1]; 4 mg group", "value": 7}, {"measurement": "Hand Foot bottom sensation measurement (before intake): Deterioration III", "setting": "[1]; 4 mg group", "value": 5}, {"measurement": "Hand Foot bottom sensation measurement (before intake): Normal", "setting": "[1]; 4 mg group", "value": 0}, {"measurement": "Hand sensation measurement (before intake): Deterioration I", "setting": "[1]; 4 mg group", "value": 3}, {"measurement": "Hand sensation measurement (before intake): Deterioration II", "setting": "[1]; 4 mg group", "value": 7}, {"measurement": "Hand sensation measurement (before intake): Deterioration III", "setting": "[1]; 4 mg group", "value": 5}, {"measurement": "Hand sensation measurement (before intake): Normal", "setting": "[1]; 4 mg group", "value": 0}, {"measurement": "Hand Foot bottom sensation measurement (before intake): Average value", "setting": "[1]; 8 mg group", "value": 2.3, "unit": "points"}, {"measurement": "Hand sensation measurement (before intake): Average value", "setting": "[1]; 8 mg group", "value": 2.3, "unit": "points"}, {"measurement": "Hand Foot bottom sensation measurement (before intake): Deterioration I", "setting": "[1]; 8 mg group", "value": 2}, {"measurement": "Hand Foot bottom sensation measurement (before intake): Deterioration II", "setting": "[1]; 8 mg group", "value": 7}, {"measurement": "Hand Foot bottom sensation measurement (before intake): Deterioration III", "setting": "[1]; 8 mg group", "value": 6}, {"measurement": "Hand Foot bottom sensation measurement (before intake): Normal", "setting": "[1]; 8 mg group", "value": 0}, {"measurement": "Hand sensation measurement (before intake): Deterioration I", "setting": "[1]; 8 mg group", "value": 2}, {"measurement": "Hand sensation measurement (before intake): Deterioration II", "setting": "[1]; 8 mg group", "value": 6}, {"measurement": "Hand sensation measurement (before intake): Deterioration III", "setting": "[1]; 8 mg group", "value": 7}, {"measurement": "Hand sensation measurement (before intake): Normal", "setting": "[1]; 8 mg group", "value": 0}, {"measurement": "sensation in the palm and the bottom of the foot (in words)", "setting": "[1]; intake 4 mg", "value": "tended to be improved"}, {"measurement": "Hand Foot bottom sensation measurement (after intake for 12 weeks): Average value", "setting": "[1]; intake 4 mg", "value": 1.7, "unit": "points"}, {"measurement": "Hand sensation measurement (after intake for 12 weeks): Average value", "setting": "[1]; intake 4 mg", "value": 1.5, "unit": "points"}, {"measurement": "Hand Foot bottom sensation measurement (after intake for 12 weeks): Deterioration I", "setting": "[1]; intake 4 mg", "value": 5}, {"measurement": "Hand Foot bottom sensation measurement (after intake for 12 weeks): Deterioration II", "setting": "[1]; intake 4 mg", "value": 7}, {"measurement": "Hand Foot bottom sensation measurement (after intake for 12 weeks): Deterioration III", "setting": "[1]; intake 4 mg", "value": 2}, {"measurement": "Hand Foot bottom sensation measurement (after intake for 12 weeks): Normal", "setting": "[1]; intake 4 mg", "value": 1}, {"measurement": "Hand sensation measurement (after intake for 12 weeks): Deterioration I", "setting": "[1]; intake 4 mg", "value": 5}, {"measurement": "Hand sensation measurement (after intake for 12 weeks): Deterioration II", "setting": "[1]; intake 4 mg", "value": 6}, {"measurement": "Hand sensation measurement (after intake for 12 weeks): Deterioration III", "setting": "[1]; intake 4 mg", "value": 2}, {"measurement": "Hand sensation measurement (after intake for 12 weeks): Normal", "setting": "[1]; intake 4 mg", "value": 2}, {"measurement": "sensation in the palm and the bottom of the foot (in words)", "setting": "[1]; intake 8 mg", "value": "significantly improved"}, {"measurement": "Hand Foot bottom sensation measurement (after intake for 12 weeks): Average value", "setting": "[1]; intake 8 mg", "value": 1.6, "unit": "points"}, {"measurement": "Hand sensation measurement (after intake for 12 weeks): Average value", "setting": "[1]; intake 8 mg", "value": 1.3, "unit": "points"}, {"measurement": "Hand Foot bottom sensation measurement (after intake for 12 weeks): Deterioration I", "setting": "[1]; intake 8 mg", "value": 7}, {"measurement": "Hand Foot bottom sensation measurement (after intake for 12 weeks): Deterioration II", "setting": "[1]; intake 8 mg", "value": 4}, {"measurement": "Hand Foot bottom sensation measurement (after intake for 12 weeks): Deterioration III", "setting": "[1]; intake 8 mg", "value": 3}, {"measurement": "Hand Foot bottom sensation measurement (after intake for 12 weeks): Normal", "setting": "[1]; intake 8 mg", "value": 1}, {"measurement": "Hand sensation measurement (after intake for 12 weeks): Deterioration I", "setting": "[1]; intake 8 mg", "value": 7}, {"measurement": "Hand sensation measurement (after intake for 12 weeks): Deterioration II", "setting": "[1]; intake 8 mg", "value": 3}, {"measurement": "Hand sensation measurement (after intake for 12 weeks): Deterioration III", "setting": "[1]; intake 8 mg", "value": 2}, {"measurement": "Hand sensation measurement (after intake for 12 weeks): Normal", "setting": "[1]; intake 8 mg", "value": 3}, {"measurement": "Foot sensation: Improved", "setting": "[2]; intake 4 mg for 12 weeks", "value": 5}, {"measurement": "Foot sensation: Same", "setting": "[2]; intake 4 mg for 12 weeks", "value": 9}, {"measurement": "Foot sensation: Worsened", "setting": "[2]; intake 4 mg for 12 weeks", "value": 1}, {"measurement": "Hand sensation: Improved", "setting": "[2]; intake 4 mg for 12 weeks", "value": 6}, {"measurement": "Hand sensation: Same", "setting": "[2]; intake 4 mg for 12 weeks", "value": 7}, {"measurement": "Hand sensation: Worsened", "setting": "[2]; intake 4 mg for 12 weeks", "value": 2}, {"measurement": "Foot sensation: Improved", "setting": "[2]; intake 8 mg for 12 weeks", "value": 8}, {"measurement": "Foot sensation: Same", "setting": "[2]; intake 8 mg for 12 weeks", "value": 7}, {"measurement": "Foot sensation: Worsened", "setting": "[2]; intake 8 mg for 12 weeks", "value": 0}, {"measurement": "Hand sensation: Improved", "setting": "[2]; intake 8 mg for 12 weeks", "value": 10}, {"measurement": "Hand sensation: Same", "setting": "[2]; intake 8 mg for 12 weeks", "value": 4}, {"measurement": "Hand sensation: Worsened", "setting": "[2]; intake 8 mg for 12 weeks", "value": 1}]}
